Data: publication PMC4676410 (Journal of medicinal chemistry, 2015)
Like-named read-outs stand apart in the source and are kept apart here.

Legend:
[1] = system: laboratory-adapted HIV-1 strains; assay: microbe, parasite or virus in culture; format: cell-based
[2] = system: HIV-1 Env pseudoviruses; format: cell-based; settings: TZM-bl, HIV-1HXB2
[3] = system: YU2 core gp120; assay: Competitive SPR: sCD4 binding to immobilized YU2 core gp120; design: species or system HIV-1; settings: NBD-11021 12.5-200 μM
[4] = system: A-MLV; assay: microbe, parasite or virus in culture; format: cell-based; settings: Murine leukemia virus
[5] = system: SHIVSF162P3; assay: Antiviral activity against SHIV; format: cell-based; settings: Table S2
[6] = system: HIV-1IIIB; assay: CD4-dependent CXCR4-tropic HIV-1 cell-cell transmission assay; format: cell-based; settings: Ghost X4/R5 and H9/HIV-1IIIB
[7] = system: lab-adapted and primary HIV-1 isolates; assay: microbe, parasite or virus in culture; format: cell-based; settings: Human immunodeficiency virus 1, PBMC, laboratory strain BaL, subtype B, R5
[8] = system: VSV-G; assay: microbe, parasite or virus in culture; format: cell-based; settings: Human immunodeficiency virus 1
[9] = system: HIV-1ADA; assay: CD4-dependent CCR5-tropic HIV-1 cell-cell transmission assay; format: cell-based; settings: Ghost X4/R5 and MOLT-4/HIV-1ADA
[10] = system: fusion between MAGI-CCR5 and HL 2/3 cells; assay: HIV-1 cell-cell fusion assay; format: cell-based; settings: read-out: IC50, cell-cell fusion assay
[11] = system: SIVmac186; assay: Antiviral activity against SIV; format: cell-based; settings: Table S2
[12] = system: HIV-1HXB2 (CXCR4-tropic) pseudovirus; assay: Single-cycle infection assay in U87-CD4-CXCR4 cells; settings: U87-CD4-CXCR4, HIV-1HXB2
[13] = system: YU2 core gp120; assay: Competitive SPR: VRC-PG04 binding to immobilized YU2 core gp120; design: species or system HIV-1; settings: at higher ratios of NBD-11021 versus VRC-PG04
[14] = system: HIV-1ADA (CCR5-tropic) pseudovirus; assay: Single-cycle infection assay in U87-CD4-CCR5 cells
[15] = system: HIV-2 isolates; assay: Antiviral activity against HIV-2; format: cell-based; settings: Table S2
[16] = system: YU2 core gp120; assay: SPR: binding of YU2 core gp120 to captured mAb 17b in presence of compounds; design: species or system HIV-1; settings: sCD4 15-fold excess, compounds 50-fold excess
[17] = Human immunodeficiency virus 1, MT2, MT-2, HIV-1IIIB

Structure (SMILES)	IC50 [1, 17] [µM]	IC50 [2] [µM]	competition with sCD4 for binding to gp120 (in words) [3]	IC50 [4] [µM]	IC50 ([1]; Human immunodeficiency virus 1, MT2, laboratory strain RF, subtype B, MT-2, R5X4) [µM]	activity against SHIVSF162P3 (in words) [5]	inhibition of CXCR4-tropic cell-cell transmission (in words) [6]	IC50 [7] [µM]	IC50 [8] [µM]	inhibition of CCR5-tropic cell-cell transmission (in words) [9]	IC50 [10] [µM]	activity against SIVmac186 (in words) [11]	IC50 [12] [µM]	competition with VRC-PG04 for binding to gp120 (in words) [13]	IC50 ([14]; Pseudovirus, U87/CD4/CCR5, U87-CD4-CCR5, HIV-1ADA) [µM]	IC50 ([14]; U87/CD4/CCR5, read-out: IC50 against CCR5- and CXCR4-tropic HIV-1) [µM]	activity against HIV-2 isolates (in words) [15]	enhancement of mAb 17b binding to YU2 core gp120 (in words) [16]	IC50 ([10]; MAGI-CCR5 and HL 2/3 cells) [µM]
Cc1nc(C(NC(=O)c2ccc(-c3ccc(Cl)cc3)[nH]2)C2CCCCN2)sc1CO (centres unmarked) [NBD-11021B, 5-(4-Chlorophenyl)-N-((5-(hydroxymethyl)-4-methylthiazol-2-yl)-(piperidin-2-yl)methyl)-1H-pyrrole-2-carboxamide]	1.8 ± 0.05	2.4 ± 0.1																	
Cc1nc(C(NC(=O)c2ccc(-c3ccc(Cl)cc3)[nH]2)C2CCCCN2)sc1CO (mixture of isomers) [NBD-11021, 5-(4-Chlorophenyl)-N-((5-(hydroxymethyl)-4-methylthiazol-2-yl)-(piperidin-2-yl)methyl)-1H-pyrrole-2-carboxamide]	1.5 ± 0.06		competes with CD4 to bind to gp120 in a dose-dependent manner	7.5 ± 0.2	7.3 ± 0.6	poor activity	inhibited cell–cell transmission effectively	3.7 ± 0.4	10 ± 0.5	showed inhibition	9.8	poor activity	2.4 ± 0.1	effectively competed with VRC-PG04	1.7 ± 0.2	1.7 to 2.4	poor activity	no enhancement	
COc1ccnc2[nH]cc(C(=O)C(=O)N3CCN(C(=O)c4ccccc4)C[C@H]3C)c12 [BMS-378806]																			0.014
